Measured values from patent publication US9868758B2, “Betulinic proline imidazole derivatives as HIV inhibitors” (HETERO LABS LIMITED, priority 2014, dated 2018).

Legend:
[1] = test system: HIV-1 strains, for e.g., 92HT599; experiment: Antiviral activity: p24 estimation in HIV-1 infected MT-2 cells; type: cell-based; conditions: Human immunodeficiency virus 1, MT2, MT-2 cells; for inhibition at 0.01 µM / inhibition at 0.1 µM / inhibition at 1 µM: p24, ~96 hours; for IC50: p24, read-out: Antiviral activity IC50
Protocol: MT-2 cells were infected with required number of TCID50's of HIV-1 strains, for e.g., 92HT599. The infected cells were plated at the concentration of 30,000 cells per well in a 96 well plate. Test compound was added to the 96 well plate with the final concentration of DMSO (vehicle—not more than 1%). The plates are then incubated in a CO2 incubator for ˜96 hours (˜4 days) for viral infection. At the end of incubation period an aliquot from each well was taken for p24 estimation. The quantitation of p24 is an estimated index for antiviral activity of the compound. Percent inhibition was calculated with reference to control values (vehicle controls).
p-24 estimation was carried out using Advance biosciences kit as per the procedure detailed by supplier.

[2] = Single dose oral pharmacokinetic study; parameters: species or system mice; conditions: mouse, in vivo, po, 30 mg/kg
Protocol: The test item was administered through oral route to animals (rat/mice) at 30 mg/kg dose in a suitable vehicle at 10 ml/kg dose volume. Blood samples (˜50 uL at each time point) were collected from retro-orbital plexus using K3 EDTA as anticoagulant in eppendorf tubes at defined time intervals under light ether anesthesia. The samples were centrifuged at 3500×g to separate plasma and stored at −80° C. until analysis.
Sample analysis: Test samples were analyzed using LC-MS-MS after developing fit-for-purpose method for each of test compound.

Cyto-toxicity, MTT assay = type: cell-based; conditions: read-out: Cytotoxicity % viability
Protocol: On day 1 calculate the number of cells required for the assay and seed 3×10^4 cells in 200 μl per well. Weigh the compound and dissolve it in DMSO to get 10 mM stock which is further diluted to 3 mM and 1 mM. The drugs from these stocks were added to plate to get final concentration of 100 μM, 30 μM and 10 μM. […] Incubate for 4 days in 5% CO2 incubator at 37° C. On day 4, 100 μl of medium was removed from each well without disturbing the cells. Add 10 μl of MTT reagent and incubate for 4 hours at 5% CO2 incubator at 37° C. for formation of crystals. Add 200 μl of 0.1N acidic isopropanol to dissolve the crystals and read the plate at 590 nm.

Compound	inhibition at 0.01 µM [1] [%]	inhibition at 0.1 µM [1] [%]	inhibition at 1 µM [1] [%]	IC50 [1] [nM]	AUC(0-t) [2] [µg·h/mL]	Cmax [2] [ng/mL]	viability at 4 days, 0.01 µM (Cyto-toxicity, MTT assay) [%]	viability at 4 days, 0.1 µM (Cyto-toxicity, MTT assay) [%]	viability at 4 days, 1 µM (Cyto-toxicity, MTT assay) [%]	viability at 4 days, 10 µM (Cyto-toxicity, MTT assay; 10 μM) [%]	viability at 4 days, 30 µM (Cyto-toxicity, MTT assay; 30 μM) [%]	viability at 4 days, 100 µM (Cyto-toxicity, MTT assay; 100 μM) [%]
C=C(C)[C@@H]1CC[C@]2(C(=O)N3CCC[C@H]3c3nc4ccccc4n3CCN(C)C)CC[C@]3(C)[C@H](CC[C@@H]4[C@@]5(C)CC[C@H](OC(=O)[C@H]6C[C@@H](C(=O)O)C6(C)C)C(C)(C)[C@@H]5CC[C@]43C)[C@@H]12 [Compound 29, (1R,3S)-3-((((1R,3aS,5aR,5bR,7aR,9S,11aR,11bR,13aR,13bR)-3a-((S)-2-(1-(2-(dimethylamino)ethyl)-1H-benzo[d]imidazol-2-yl)pyrrolidine-1-carbonyl)-5a,5b,8,8,11a-pentamethyl-1-(prop-1-en-2-yl)icosahydro-1H-cyclopenta[a]chrysen-9-yl)oxy)carbonyl)-2,2-dimethylcyclobutane-1-carboxylic acid]	0	100	100	9.76	491	14900	31	1	5			
C=C(C)[C@@H]1CC[C@]2(C(=O)N3C[C@H](OCCOC)C[C@H]3c3nc(-c4cccc(F)c4)cn3CCN3CCCC3)CC[C@]3(C)[C@H](CC[C@@H]4[C@@]5(C)CC[C@H](OC(=O)[C@H]6C[C@@H](C(=O)O)C6(C)C)C(C)(C)[C@@H]5CC[C@]43C)[C@@H]12 [Compound 28, (1R,3S)-3-((((1R,3aS,5aR,5bR,7aR,9S,11aR,11bR,13aR,13bR)-3a-((2S,4R)-2-(4-(3-fluorophenyl)-1-(2-(pyrrolidin-1-yl)ethyl)-1H-imidazol-2-yl)-4-(2-methoxyethoxy)pyrrolidine-1-carbonyl)-5a,5b,8,8,11a-pentamethyl-1-(prop-1-en-2-yl)icosahydro-1H-cyclopenta[a]chrysen-9-yl)oxy)carbonyl)-2,2-dimethylcyclobutane-1-carboxylic acid]	13	98	100	39.6	293	7300	65	19	6			
C=C(C)[C@@H]1CC[C@]2(C(=O)N3C[C@H](OCCOC)C[C@H]3c3nc(-c4ccccc4)cn3CCN3CCCC3)CC[C@]3(C)[C@H](CC[C@@H]4[C@@]5(C)CC[C@H](OC(=O)[C@H]6C[C@@H](C(=O)O)C6(C)C)C(C)(C)[C@@H]5CC[C@]43C)[C@@H]12 [Compound 27, (1R,3S)-3-((((1R,3aS,5aR,5bR,7aR,9S,11aR,11bR,13aR,13bR)-3a-((2S,4R)-4-(2-methoxyethoxy)-2-(4-phenyl-1-(2-(pyrrolidin-1-yl)ethyl)-1H-imidazol-2-yl)pyrrolidine-1-carbonyl)-5a,5b,8,8,11a-pentamethyl-1-(prop-1-en-2-yl)icosahydro-1H-cyclopenta[a]chrysen-9-yl)oxy)carbonyl)-2,2-dimethylcyclobutane-1-carboxylic acid]	0	100	100	34	355	10900	60	24	8			
C=C(C)[C@@H]1CC[C@]2(C(=O)N3CCC[C@H]3c3nc4ccccc4n3CCN3CCCC3)CC[C@]3(C)[C@H](CC[C@@H]4[C@@]5(C)CC[C@H](OC(=O)[C@H]6C[C@@H](C(=O)O)C6(C)C)C(C)(C)[C@@H]5CC[C@]43C)[C@@H]12 [Compound 30, (1R,3S)-2,2-dimethyl-3-((((1R,3aS,5aR,5bR,7aR,9S,11aR,11bR,13aR,13bR)-5a,5b,8,8,11a-pentamethyl-1-(prop-1-en-2-yl)-3a-((S)-2-(1-(2-(pyrrolidin-1-yl)ethyl)-1H-benzo[d]imidazol-2-yl)pyrrolidine-1-carbonyl)icosahydro-1H-cyclopenta[a]chrysen-9-yl)oxy)carbonyl)cyclobutane-1-carboxylic acid]	71	100	100	10.2	546	14800	33	3	5			
C=C(C)[C@@H]1CC[C@]2(C(=O)N3C[C@H](OCCOC)C[C@H]3c3nc(-c4ccccc4)cn3CCC(C)C)CC[C@]3(C)[C@H](CC[C@@H]4[C@@]5(C)CC[C@H](OC(=O)[C@H]6C[C@@H](C(=O)O)C6(C)C)C(C)(C)[C@@H]5CC[C@]43C)[C@@H]12 [Compound 26, (1R,3S)-3-((((1R,3aS,5aR,5bR,7aR,9S,11aR,11bR,13aR,13bR)-3a-((2S,4R)-2-(1-isopentyl-4-phenyl-1H-imidazol-2-yl)-4-(2-methoxyethoxy)pyrrolidine-1-carbonyl)-5a,5b,8,8,11a-pentamethyl-1-(prop-1-en-2-yl)icosahydro-1H-cyclopenta[a]chrysen-9-yl)oxy)carbonyl)-2,2-dimethylcyclobutane-1-carboxylic acid]	0	15	99							77	54	9
